Data published in ChEMBL document CHEMBL1201862, “PubChem BioAssay data set” (2004).
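Values below derive from 48-hour exposures of cells grown in 96-well plates, with endpoints linearly interpolated between the two concentrations bracketing the appropriate inhibition level. GI50 marks 50% less growth.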 The source made the active and inactive calls. Rule as the data show it: active = GI50 up to about 1.1 µM and inactive = higher.

Assays:
Experiment in all cases: growth of human tumour cells (NCI), 48 h
CAKI-1 = tested on: CAKI-1
CCRF-CEM = tested on: CCRF-CEM
HCC 2998 = tested on: HCC 2998
HOP-62 = tested on: HOP-62
MOLT-4 = tested on: MOLT-4
NCI-H23 = tested on: NCI-H23
OVCAR-3 = tested on: OVCAR-3
SF-268 = tested on: SF-268
SF-539 = tested on: SF-539
SNB-19 = tested on: SNB-19
SW-620 = tested on: SW-620
UACC-62 = tested on: UACC-62
UO-31 = tested on: UO-31
RXF 393 = tested on: RXF 393
SK-MEL-28 = tested on: SK-MEL-28
SNB-75 = tested on: SNB-75

Measured: GI50

COc1ccc2ccccc2c1C1OC(=O)c2ccccc21 (stereo not given)
inactive: CAKI-1 > 100 µM | CCRF-CEM > 100 µM | HCC 2998 > 100 µM | HOP-62 > 100 µM | MOLT-4 44.2 µM | NCI-H23 > 100 µM | OVCAR-3 > 100 µM | SF-268 > 100 µM | SF-539 > 100 µM | SNB-19 > 100 µM | SW-620 87.9 µM | UACC-62 80 µM | UO-31 68.2 µM

C[C@]12CCC(=O)C=C1CC[C@@H]1C2CC[C@]2(C)c3nn(-c4ccccc4)nc3CC12 (stereo not given in full)
inactive: CCRF-CEM > 100 µM | HCC 2998 > 100 µM | HOP-62 > 100 µM | MOLT-4 > 100 µM | NCI-H23 > 100 µM | OVCAR-3 > 100 µM | RXF 393 > 100 µM | SF-268 > 100 µM | SF-539 > 100 µM | SK-MEL-28 > 100 µM | SNB-19 > 100 µM | SNB-75 > 100 µM | SW-620 > 100 µM | UACC-62 > 100 µM | UO-31 > 100 µM

Nc1nc2c(-c3ccc([N+](=O)[O-])cc3)nnn2c2ccccc12
inactive: CAKI-1 > 100 µM | CCRF-CEM > 10 µM | HCC 2998 > 100 µM | HOP-62 56.5 µM | MOLT-4 > 100 µM | NCI-H23 37.2 µM | OVCAR-3 29.6 µM | SF-268 > 100 µM | SF-539 > 100 µM | SK-MEL-28 > 100 µM | SNB-19 17.5 µM | SNB-75 > 10 µM | SW-620 > 100 µM | UACC-62 > 100 µM | UO-31 > 100 µM

N/C=N/S(=O)(=O)c1ccc(NC(=O)COC(=O)c2cccc3c(=O)c4ccccc4[nH]c23)cc1
inactive: CCRF-CEM > 100 µM | HOP-62 > 100 µM | MOLT-4 > 100 µM | NCI-H23 > 100 µM | OVCAR-3 > 100 µM | RXF 393 > 100 µM | SF-539 > 100 µM | SK-MEL-28 > 100 µM | SNB-19 > 100 µM | SNB-75 > 100 µM | SW-620 > 100 µM | UACC-62 > 100 µM | UO-31 > 100 µM

C=C(/C=C/C=C(\CO)CCC=C(C)C)[C@H]1CCC2([C@H](CCCO)/C(=C(/C)C=O)CC[C@]2(C)O)[C@H]1O (stereo not given in full)
inactive: CAKI-1 > 100 µM | CCRF-CEM 38.2 µM | HCC 2998 > 100 µM | HOP-62 75.9 µM | MOLT-4 > 100 µM | NCI-H23 > 100 µM | OVCAR-3 > 100 µM | SF-539 83.4 µM | SK-MEL-28 > 100 µM | SNB-19 > 100 µM | SNB-75 58.6 µM | SW-620 > 100 µM | UACC-62 > 100 µM

Cc1cccc(NC(=O)/C(=N\NC(C)(C)C)C2NC(=S)NC2=O)c1C (stereo not given)
inactive: CAKI-1 15.4 µM | CCRF-CEM > 100 µM | HCC 2998 > 100 µM | HOP-62 > 100 µM | MOLT-4 > 100 µM | OVCAR-3 > 100 µM | SF-539 > 100 µM | SNB-19 > 100 µM | SW-620 > 100 µM | UACC-62 > 100 µM | UO-31 > 100 µM
